# Laboratory results: patent US12612409B2, “Pyrrolopyrimidines as CFTR potentiators” (Cystic Fibrosis Foundation, priority 2016, dated 2026)
# Experiments:
# [1] = target: T1, CFTR in F508del/F508del primary CF hBE cells (Homo sapiens, UniProt P13569, DEL508-508); assay: Ussing chamber electrophysiology assay of CFTR potentiation in F508del/F508del CF bronchial epithelial cells (27° C.); assay type: cell-based
# T1 construct: Primary cystic fibrosis human bronchial epithelial (CF hBE) cells were expanded and cultured; endogenous in cells; host or cells: primary CF human bronchial epithelial cells, genotype F508del/F508del
# Summary of the method: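 Well-differentiated primary CF hBE cells (>30 days air/liquid interface) in Ussing chambers, HEPES saline both sides, voltage clamped to zero. Amiloride 30 uM, forskolin 10 uM, four rising compound concentrations, then CFTRinh-172 20 uM added at 20-25 min intervals. Short-circuit current scaled to DMSO (0%) and a positive control potentiator maximum (100%).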
# [2] = target: T2, recombinant F508del V470 CFTR in Fischer rat thyroid (FRT) cells (Homo sapiens, UniProt P13569, DEL508-508); assay: FRT ion flux assay of F508del CFTR potentiation; assay type: cell-based; conditions: FRT cells expressing F508del V470 CFTR, forskolin 20 uM, 27° C. pre-incubation
# T2 construct: expressed in transfected cells
# Summary of the method: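 FRT cells co-expressing F508del V470 CFTR and halide-sensitive YFP, temperature-corrected at 27° C for 16-24 h, then treated 30 min with compound plus 20 uM forskolin. Iodide addition quenches YFP, read after ~21 s; ratio scaled to DMSO (0%) and positive control potentiator (100%).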
# T2 sequence (P13569 with tags, fused parts or gaps DEL508-508): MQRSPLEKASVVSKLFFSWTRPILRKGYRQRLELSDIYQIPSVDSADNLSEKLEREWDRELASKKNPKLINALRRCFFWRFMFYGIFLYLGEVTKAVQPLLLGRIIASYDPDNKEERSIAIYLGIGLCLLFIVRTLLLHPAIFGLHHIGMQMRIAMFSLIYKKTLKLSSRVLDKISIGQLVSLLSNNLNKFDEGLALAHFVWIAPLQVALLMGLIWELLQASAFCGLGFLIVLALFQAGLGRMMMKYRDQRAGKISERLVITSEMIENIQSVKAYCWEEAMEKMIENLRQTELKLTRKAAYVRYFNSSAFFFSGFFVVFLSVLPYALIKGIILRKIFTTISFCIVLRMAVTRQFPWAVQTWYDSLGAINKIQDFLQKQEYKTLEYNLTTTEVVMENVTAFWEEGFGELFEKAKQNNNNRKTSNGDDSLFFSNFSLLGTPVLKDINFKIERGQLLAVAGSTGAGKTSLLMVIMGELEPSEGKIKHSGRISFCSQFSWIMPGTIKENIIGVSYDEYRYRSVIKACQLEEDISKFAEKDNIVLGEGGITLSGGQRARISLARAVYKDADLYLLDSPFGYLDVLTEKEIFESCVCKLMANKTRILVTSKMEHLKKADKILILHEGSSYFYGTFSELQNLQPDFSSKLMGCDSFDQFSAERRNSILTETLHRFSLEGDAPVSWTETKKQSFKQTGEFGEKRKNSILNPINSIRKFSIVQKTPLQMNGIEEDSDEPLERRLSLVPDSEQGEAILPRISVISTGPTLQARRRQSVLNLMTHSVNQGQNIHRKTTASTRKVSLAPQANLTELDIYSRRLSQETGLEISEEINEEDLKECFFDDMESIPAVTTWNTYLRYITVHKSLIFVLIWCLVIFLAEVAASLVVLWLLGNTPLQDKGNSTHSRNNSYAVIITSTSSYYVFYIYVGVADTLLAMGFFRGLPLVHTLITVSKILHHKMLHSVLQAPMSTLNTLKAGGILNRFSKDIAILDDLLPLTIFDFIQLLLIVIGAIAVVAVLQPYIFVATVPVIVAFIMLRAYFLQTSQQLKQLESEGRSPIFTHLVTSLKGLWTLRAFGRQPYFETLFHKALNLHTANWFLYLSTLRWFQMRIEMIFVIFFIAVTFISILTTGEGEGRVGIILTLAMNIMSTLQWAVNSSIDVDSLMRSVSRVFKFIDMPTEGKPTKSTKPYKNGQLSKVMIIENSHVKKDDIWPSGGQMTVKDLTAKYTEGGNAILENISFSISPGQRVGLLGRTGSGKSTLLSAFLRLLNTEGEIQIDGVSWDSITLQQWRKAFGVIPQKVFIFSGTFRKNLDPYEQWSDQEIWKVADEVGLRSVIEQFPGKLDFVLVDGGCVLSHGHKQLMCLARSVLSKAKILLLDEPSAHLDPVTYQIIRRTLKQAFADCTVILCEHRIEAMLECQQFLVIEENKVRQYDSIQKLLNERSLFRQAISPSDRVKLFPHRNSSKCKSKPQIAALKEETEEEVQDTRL
# T1 sequence (P13569 with tags, fused parts or gaps DEL508-508): as above
SMILES,EC50 [1] [nM],EC50 [2] [nM]
"CCC(c1cn(-c2cc(C(F)(F)F)ccn2)nn1)n1cc(-c2cncnc2OC)c2c(N)ncnc21 (stereo not drawn) [Example 242, 5-(4-Methoxypyrimidin-5-yl)-7-(1-{1-[4-(trifluoromethyl)pyridin-2-yl]-1H-1,2,3-triazol-4-yl]propyl}-7H-pyrrolo[2,3-d]pyrimidin-4-amine]",205,378
"COc1ncncc1-c1cn(C(c2cn(-c3ccccc3F)nn2)C2CC2)c2ncnc(N)c12 (stereo not drawn) [Example 243, 7-{Cyclopropyl[1-(2-fluorophenyl)-1H-1,2,3-triazol-4-yl]methyl}-5-(4-methoxypyrimidin-5-yl)-7H-pyrrolo[2,3-d]pyrimidin-4-amine]",95.3,56.2
"CCC(c1cn(-c2ccccc2F)nn1)n1cc(-c2cncnc2OC)c2c(N)ncnc21 (stereo not drawn) [Example 244, 7-{1-[1-(2-Fluorophenyl)-1H-1,2,3-triazol-4-yl]propyl}-5-[4-methoxypyrimidin-5-yl]-7H-pyrrolo[2,3-d]pyrimidin-4-amine]",61.6,34.1
"CC(c1cn(-c2ccccc2F)nn1)n1cc(C2CCC2)c2c(N)ncnc21 (stereo not drawn) [Example 247, 5-Cyclobutyl-7-{1-[1-(2-fluorophenyl)-1H-1,2,3-triazol-4-yl]ethyl}-7H-pyrrolo[2,3-d]pyrimidin-4-amine]",12.4,16.2
"CCC(c1cn(-c2ccccc2)nn1)n1cc(-c2cncnc2OC)c2c(N)ncnc21 (stereo not drawn) [Example 248, 5-(4-Methoxypyrimidin-5-yl)-7-{1-[1-phenyl-1H-1,2,3-triazol-4-yl]propyl}-7H-pyrrolo[2,3-d]pyrimidin-4-amine]",55.4,25.9
"COc1nc(C(F)(F)F)ncc1-c1cn(C(C)c2cn(-c3ccccc3F)nn2)c2ncnc(N)c12 (stereo not drawn) [Example 249, 7-{1-[1-(2-Fluorophenyl)-1H-1,2,3-triazol-4-yl]ethyl}-5-[4-methoxy-2-(trifluoromethyl)pyrimidin-5-yl]-7H-pyrrolo[2,3-d]pyrimidin-4-amine]",27.7,12.2
"COc1nc(C(F)(F)F)ncc1-c1cn(Cc2cn(-c3ccccc3F)nn2)c2ncnc(N)c12 [Example 252, 7-{[1-(2-Fluorophenyl)-1H-1,2,3-triazol-4-yl]methyl}-5-[4-methoxy-2-(trifluoromethyl)pyrimidin-5-yl]-7H-pyrrolo[2,3-d]pyrimidin-4-amine]",23.9,27.6
"COc1ncccc1-c1cn(Cc2nnc(-c3ccccc3F)[nH]2)c2ncnc(N)c12 [Example 253, 7-{[5-(2-Fluorophenyl)-4H-1,2,4-triazol-3-yl]methyl}-5-(2-methoxypyridin-3-yl)-7H-pyrrolo[2,3-d]pyrimidin-4-amine]",1340,719
"CC(C)n1cc(Cn2cc(-c3ccc(Cl)cc3)c3c(N)ncnc32)cn1 [Example 254, 5-(4-Chlorophenyl)-7-{[1-(propan-2-yl)-1H-pyrazol-4-yl]methyl}-7H-pyrrolo[2,3-d]pyrimidin-4-amine]",140,422
"CC(c1cn(CC2CCC2)nn1)n1cc(-c2ccc(Cl)cc2)c2c(N)ncnc21 (stereo not drawn) [Example 255, 5-(4-Chlorophenyl)-7-{1-[1-(cyclobutylmethyl)-1H-1,2,3-triazol-4-yl]ethyl}-7H-pyrrolo[2,3-d]pyrimidin-4-amine]",64.7,259
"CC(C)(c1cn(-c2ccccc2F)nn1)n1cc(-c2ccc(Cl)cc2)c2c(N)ncnc21 [Example 256, 5-(4-Chlorophenyl)-7-{2-[1-(2-fluorophenyl)-1H-1,2,3-triazol-4-yl]propan-2-yl}-7H-pyrrolo[2,3-d]pyrimidin-4-amine]",45,341
"Cc1c(-c2ccc(Cl)cc2)c2c(N)ncnc2n1C(C)c1cn(-c2ccccc2F)nn1 (stereo not drawn) [Example 257, 5-(4-Chlorophenyl)-7-{1-[1-(2-fluorophenyl)-1H-1,2,3-triazol-4-yl]ethyl}-6-methyl-7H-pyrrolo[2,3-d]pyrimidin-4-amine]",38.3,289
"CC(c1cc(-c2ccccc2F)no1)n1cc(-c2ccc(Cl)cc2)c2c(N)ncnc21 (stereo not drawn) [Example 258, 5-(4-Chlorophenyl)-7-{1-[3-(2-fluorophenyl)-1,2-oxazol-5-yl]ethyl}-7H-pyrrolo[2,3-d]pyrimidin-4-amine]",147,343
"Cc1c(-c2ccc(Cl)cc2)c2c(N)ncnc2n1C(C)c1cc(-c2ccccc2F)no1 (stereo not drawn) [Example 259, 5-(4-Chlorophenyl)-7-{1-[3-(2-fluorophenyl)-1,2-oxazol-5-yl]ethyl}-6-methyl-7H-pyrrolo[2,3-d]pyrimidin-4-amine]",52,206
"COc1ccccc1-c1cc(C(C)n2cc(-c3ccc(Cl)cc3)c3c(N)ncnc32)on1 (stereo not drawn) [Example 260, 5-(4-Chlorophenyl)-7-{1-[3-(2-methoxyphenyl)-1,2-oxazol-5-yl]ethyl}-7H-pyrrolo[2,3-d]pyrimidin-4-amine]",110,197
"COc1cccc(-c2cc(C(C)n3cc(-c4ccc(Cl)cc4)c4c(N)ncnc43)on2)c1 (stereo not drawn) [Example 261, 5-(4-Chlorophenyl)-7-{1-[3-(3-methoxyphenyl)-1,2-oxazol-5-yl]ethyl}-7H-pyrrolo[2,3-d]pyrimidin-4-amine]",232,169
"Nc1ncnc2c1c(-c1ccc(Cl)cc1)cn2Cc1cnn(-c2ccccc2F)c1 [Example 262, 5-(4-Chlorophenyl)-7-{[1-(2-fluorophenyl)-1H-pyrazol-4-yl]methyl}-7H-pyrrolo[2,3-d]pyrimidin-4-amine]",60.2,313
"Nc1ncnc2c1c(-c1ccc(Cl)cc1)cn2Cc1cnc(-c2ccccc2F)[nH]1 [Example 263, 5-(4-Chlorophenyl)-7-{[2-(2-fluorophenyl)-1H-imidazol-5-yl]methyl}-7H-pyrrolo[2,3-d]pyrimidin-4-amine]",21.6,199
"Nc1ncnc2c1c(-c1ccc(Cl)cc1)cn2Cc1cnc(-c2ccccc2)[nH]1 [Example 264, 5-(4-Chlorophenyl)-7-[(2-phenyl-1H-imidazol-5-yl)methyl]-7H-pyrrolo[2,3-d]pyrimidin-4-amine]",35.4,176
"Cc1ccccc1-c1cc(C(C)n2cc(-c3ccc(Cl)cc3)c3c(N)ncnc32)on1 (stereo not drawn) [Example 266, 5-(4-Chlorophenyl)-7-{1-[3-(2-methylphenyl)-1,2-oxazol-5-yl]ethyl}-7H-pyrrolo[2,3-d]pyrimidin-4-amine]",253,138
"CC(c1cc(-c2cccc(F)c2)no1)n1cc(-c2ccc(Cl)cc2)c2c(N)ncnc21 (stereo not drawn) [Example 267, 5-(4-Chlorophenyl)-7-{1-[3-(3-fluorophenyl)-1,2-oxazol-5-yl]ethyl}-7H-pyrrolo[2,3-d]pyrimidin-4-amine]",136,1120
"COc1ncccc1-c1cn(Cc2ccn(-c3ccccc3F)n2)c2ncnc(N)c12 [Example 268, 7-{[1-(2-Fluorophenyl)-1H-pyrazol-3-yl]methyl}-5-(2-methoxypyridin-3-yl)-7H-pyrrolo[2,3-d]pyrimidin-4-amine]",578,470
"Nc1ncnc2c1c(-c1ccc(Cl)cc1)cn2Cc1cc(C2CCCCC2)no1 [Example 269, 5-(4-Chlorophenyl)-7-[(3-cyclohexyl-1,2-oxazol-5-yl)methyl]-7H-pyrrolo[2,3-d]pyrimidin-4-amine]",22.7,478
"COc1ncccc1-c1cn(Cc2cnn(-c3ccc(C(F)F)cc3)c2)c2ncnc(N)c12 [Example 270, 7-({1-[4-(Difluoromethyl)phenyl]-1H-pyrazol-4-yl}methyl)-5-(2-methoxypyridin-3-yl)-7H-pyrrolo[2,3-d]pyrimidin-4-amine]",47.7,451
"COc1ncccc1-c1cn(Cc2nnc(-c3ccccc3)[nH]2)c2ncnc(N)c12 [Example 272, 5-(2-Methoxypyridin-3-yl)-7-[(5-phenyl-4H-1,2,4-triazol-3-yl)methyl]-7H-pyrrolo[2,3-d]pyrimidin-4-amine]",833,398
"COc1ccc(-c2c(C)n(Cc3cn(-c4ccc(F)cc4F)nn3)c3ncnc(N)c23)cn1 [Example 278, 7-{[1-(2,4-Difluorophenyl)-1H-1,2,3-triazol-4-yl]methyl}-5-(6-methoxypyridin-3-yl)-6-methyl-7H-pyrrolo[2,3-d]pyrimidin-4-amine]",152,219
"Nc1ncnc2c1c(-c1ccc(Cl)cc1)cn2Cc1cc(C2CC2)no1 [Example 280, 5-(4-Chlorophenyl)-7-[(3-cyclopropyl-1,2-oxazol-5-yl)methyl]-7H-pyrrolo[2,3-d]pyrimidin-4-amine]",127,2670
"Nc1ncnc2c1c(-c1ccc(Cl)cc1)cn2Cc1nc(-c2ccccc2)c[nH]1 [Example 282, 5-(4-Chlorophenyl)-7-[(4-phenyl-1H-imidazol-2-yl)methyl]-7H-pyrrolo[2,3-d]pyrimidin-4-amine]",216,909
"CC(C)c1cc(Cn2cc(-c3ccc(Cl)cc3)c3c(N)ncnc32)on1 [Example 283, 5-(4-Chlorophenyl)-7-{[3-(propan-2-yl)-1,2-oxazol-5-yl]methyl}-7H-pyrrolo[2,3-d]pyrimidin-4-amine]",111,659
"Nc1ncnc2c1c(-c1ccc(Cl)cc1)cn2Cc1ncc(-c2ccccc2F)[nH]1 [Example 285, 5-(4-Chlorophenyl)-7-{[5-(2-fluorophenyl)-1H-imidazol-2-yl]methyl}-7H-pyrrolo[2,3-d]pyrimidin-4-amine]",3500,3690
